Measured values from publication PMC7794376 (Nature Communications, 2021).
Converted amounts (≈) assume the structure as drawn. “And” between values parts separate entries of the source, which are not always exact repeats. Equal values may be shown once. Read-outs that look alike come from different tables or passages of the source.

What was measured:
MtbCoaBC [1] = molecular target: T1, MtbCoaBC (Mycobacterium tuberculosis, UniProt P9WNZ1); test: biochemical; format: biochemical; settings: for activity at 0.25 µM / activity at 0.5 µM: relative to average DMSO CT; for inhibition, IC50 MtbCoaBC 1b / remaining activity relative to control, IC50 MtbCoaBC 1b: three replicates, column head and unit not shown
T1 sequence (P9WNZ1 whole entry): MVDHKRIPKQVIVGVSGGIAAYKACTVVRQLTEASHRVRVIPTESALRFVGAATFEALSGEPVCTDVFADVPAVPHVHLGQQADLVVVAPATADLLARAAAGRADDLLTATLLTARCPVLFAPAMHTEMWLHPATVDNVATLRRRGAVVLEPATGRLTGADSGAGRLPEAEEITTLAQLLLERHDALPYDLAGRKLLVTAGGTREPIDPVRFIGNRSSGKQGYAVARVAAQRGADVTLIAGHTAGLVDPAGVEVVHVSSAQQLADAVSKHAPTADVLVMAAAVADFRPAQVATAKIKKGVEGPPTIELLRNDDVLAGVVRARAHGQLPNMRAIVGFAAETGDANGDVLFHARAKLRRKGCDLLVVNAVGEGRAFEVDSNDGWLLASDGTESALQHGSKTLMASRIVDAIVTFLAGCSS

MtbCoaBC [2] = molecular target: T1, MtbCoaBC; test: Competition assays, first half of CoaB reaction (EnzChek, variable CTP or PPA); format: biochemical; settings: in words
MtbCoaBC [3] = molecular target: T1, MtbCoaBC; test: CMP quantification assay (UPLC), second half of CoaB reaction, variable L-cysteine; format: biochemical; settings: for CMP formation rate, uM CMP/uM protein.s-1: MtbCoaBC 32 nM, replicates R1-R3
human CoaB (HCoaB) = human CoaB (HCoaB) (Homo sapiens, UniProt Q9HAB8); test: EnzChek pyrophosphate assay, HCoaB; format: biochemical; settings: for Activity: slope of absorbance at 360 nm vs time (s)
human CoaB (HCoaB), sequence (Q9HAB8 whole entry): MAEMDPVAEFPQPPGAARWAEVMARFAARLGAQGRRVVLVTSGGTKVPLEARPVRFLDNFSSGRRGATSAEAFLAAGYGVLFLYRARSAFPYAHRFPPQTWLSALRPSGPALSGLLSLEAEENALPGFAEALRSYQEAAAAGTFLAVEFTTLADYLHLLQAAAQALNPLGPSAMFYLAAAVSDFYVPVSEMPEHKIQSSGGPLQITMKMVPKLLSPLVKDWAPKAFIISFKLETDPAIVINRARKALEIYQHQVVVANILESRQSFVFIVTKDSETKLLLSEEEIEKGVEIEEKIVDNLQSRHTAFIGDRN

M. tuberculosis H37Rv = test: MIC determination in different media; format: cell-based; settings: Mycobacterium tuberculosis, read-out: Minimum inhibitory concentration (MIC)
[4] = inhibitor concentration 1 (log 0)
[5] = inhibitor concentration 2 (log 0.30103)
[6] = 3.125 uM 1b, relative to average DMSO CT, replicates R1-R3
[7] = 6.25 uM 1b, relative to average DMSO CT, replicates R1-R3
[8] = 25 uM 1b, relative to average DMSO CT, replicates R1-R3
[9] = 50 uM 1b, relative to average DMSO CT, replicates R1-R3
[10] = 100 uM 1b, relative to average DMSO CT, replicates R1-R3

O=C(c1ccc(O)cc1)c1ccc(O)c(O)c1O [compound 1b]
inhibition at 0.25 µM (MtbCoaBC [1]; 0.25 uM 1b, replicate R2, read-out: Inhibition % R2): 38.6%
activity at 0.25 µM (MtbCoaBC [1]; 0.25 uM 1b, replicate R2, read-out: Activity % R2): 61.4%
inhibition at 0.25 µM (MtbCoaBC [1]; 0.25 uM 1b, replicate R3, read-out: Inhibition % R3): 42.2%
activity at 0.25 µM (MtbCoaBC [1]; 0.25 uM 1b, replicate R3, read-out: Activity % R3): 57.8%
Activity R3 (MtbCoaBC [1]; 0.25 uM 1b, replicate R3, slope of absorbance at 360 vs time (s)): 0.0001108
inhibition at 0.5 µM (MtbCoaBC [1]; 0.5 uM 1b, replicate R1, read-out: Inhibition % R1): 89.6%
activity at 0.5 µM (MtbCoaBC [1]; 0.5 uM 1b, replicate R1, read-out: Activity % R1): 10.4%
Activity R1 (MtbCoaBC [1]; 0.5 uM 1b, replicate R1, slope of absorbance at 360 vs time (s)): 0.000019995
inhibition at 0.5 µM (MtbCoaBC [1]; 0.5 uM 1b, replicate R2, read-out: Inhibition % R2): 80.6%
activity at 0.5 µM (MtbCoaBC [1]; 0.5 uM 1b, replicate R2, read-out: Activity % R2): 19.4%
inhibition at 0.5 µM (MtbCoaBC [1]; 0.5 uM 1b, replicate R3, read-out: Inhibition % R3): 86.3%
activity at 0.5 µM (MtbCoaBC [1]; 0.5 uM 1b, replicate R3, read-out: Activity % R3): 13.7%
Activity R3 (MtbCoaBC [1]; 0.5 uM 1b, replicate R3, slope of absorbance at 360 vs time (s)): 0.000026339
inhibition, IC50 MtbCoaBC 1b (MtbCoaBC [1]; [4]): 96.33 and 92.35 and 100.00
remaining activity relative to control, IC50 MtbCoaBC 1b (MtbCoaBC [1]; [4]): -0.335 and 3.671 and 7.649
inhibition, IC50 MtbCoaBC 1b (MtbCoaBC [1]; [5]): 100.00
remaining activity relative to control, IC50 MtbCoaBC 1b (MtbCoaBC [1]; [5]): -0.361 and -1.371 and -2.001
IC50 (MtbCoaBC [1]; read-out: IC50 EnzChek MtbCoaBC): 0.28 ± 0.05 µM
mode of inhibition (MtbCoaBC [2]; relative to CTP): uncompetitive inhibition
mode of inhibition (MtbCoaBC [2]; relative to PPA): uncompetitive inhibition
CMP formation rate, uM CMP/uM protein.s-1 (MtbCoaBC [3]; 0.0625 uM 1b, 31.25 uM L-cysteine): 0.1694 uM CMP/uM protein.s-1 and 0.1962 uM CMP/uM protein.s-1 and 0.1676 uM CMP/uM protein.s-1
CMP formation rate, uM CMP/uM protein.s-1 (MtbCoaBC [3]; 0.0625 uM 1b, 62.5 uM L-cysteine): 0.2113 uM CMP/uM protein.s-1 and 0.2325 uM CMP/uM protein.s-1 and 0.2281 uM CMP/uM protein.s-1
CMP formation rate, uM CMP/uM protein.s-1 (MtbCoaBC [3]; 0.0625 uM 1b, 250 uM L-cysteine): 0.2822 uM CMP/uM protein.s-1 and 0.2759 uM CMP/uM protein.s-1 and 0.2797 uM CMP/uM protein.s-1
CMP formation rate, uM CMP/uM protein.s-1 (MtbCoaBC [3]; 0.0625 uM 1b, 500 uM L-cysteine): 0.3148 uM CMP/uM protein.s-1 and 0.3211 uM CMP/uM protein.s-1 and 0.3277 uM CMP/uM protein.s-1
CMP formation rate, uM CMP/uM protein.s-1 (MtbCoaBC [3]; 0.250 uM 1b, 31.25 uM L-cysteine): 0.1192 uM CMP/uM protein.s-1 and 0.1053 uM CMP/uM protein.s-1 and 0.1262 uM CMP/uM protein.s-1
CMP formation rate, uM CMP/uM protein.s-1 (MtbCoaBC [3]; 0.250 uM 1b, 62.5 uM L-cysteine): 0.1329 uM CMP/uM protein.s-1 and 0.1247 uM CMP/uM protein.s-1 and 0.1395 uM CMP/uM protein.s-1
CMP formation rate, uM CMP/uM protein.s-1 (MtbCoaBC [3]; 0.250 uM 1b, 250 uM L-cysteine): 0.1577 uM CMP/uM protein.s-1 and 0.155 uM CMP/uM protein.s-1 and 0.1593 uM CMP/uM protein.s-1
CMP formation rate, uM CMP/uM protein.s-1 (MtbCoaBC [3]; 0.250 uM 1b, 500 uM L-cysteine): 0.1688 uM CMP/uM protein.s-1 and 0.1557 uM CMP/uM protein.s-1 and 0.1625 uM CMP/uM protein.s-1
mode of inhibition (MtbCoaBC [3]; relative to L-cysteine, in words): uncompetitive inhibition
IC50 (human CoaB (HCoaB); 1 µM enzyme, average of three independent experiments ± SD): 122 ± 22 µM
Activity % (human CoaB (HCoaB); [6]): 96.65% and 97.82%
activity at 3.125 µM (human CoaB (HCoaB); [6]): 97.6%
Inhibition % (human CoaB (HCoaB); 3.125 uM 1b, replicates R1-R3): 2.18% and 2.43%
inhibition at 3.125 µM (human CoaB (HCoaB); 3.125 uM 1b, replicates R1-R3): 3.35%
Activity (human CoaB (HCoaB); 3.125 uM 1b, replicates R1-R3): 0.0001351 and 0.0001338 and 0.0001354
Activity % (human CoaB (HCoaB); [7]): 95.26% and 96.32%
activity at 6.25 µM (human CoaB (HCoaB); [7]): 97.7%
Inhibition % (human CoaB (HCoaB); 6.25 uM 1b, replicates R1-R3): 4.74% and 3.68% and 2.34%
Activity (human CoaB (HCoaB); 6.25 uM 1b, replicates R1-R3): 0.0001352 and 0.0001319 and 0.0001333
Activity % (human CoaB (HCoaB); [8]): 82.72% and 82.77%
activity at 25 µM (human CoaB (HCoaB); [8]): 81.5%
Inhibition % (human CoaB (HCoaB); 25 uM 1b, replicates R1-R3): 17.23% and 18.55%
inhibition at 25 µM (human CoaB (HCoaB); 25 uM 1b, replicates R1-R3): 17.3%
Activity (human CoaB (HCoaB); 25 uM 1b, replicates R1-R3): 0.0001127 and 0.0001145 and 0.0001146
Activity % (human CoaB (HCoaB); [9]): 63.96% and 63.87%
activity at 50 µM (human CoaB (HCoaB); [9]): 75.6%
Inhibition % (human CoaB (HCoaB); 50 uM 1b, replicates R1-R3): 36.13% and 24.38%
inhibition at 50 µM (human CoaB (HCoaB); 50 uM 1b, replicates R1-R3): 36%
Activity (human CoaB (HCoaB); 50 uM 1b, replicates R1-R3): 0.0001047 and 0.000088534 and 0.000088398
Activity % (human CoaB (HCoaB); [10]): 56.11% and 53.46%
activity at 100 µM (human CoaB (HCoaB); [10]): 60.5%
Inhibition % (human CoaB (HCoaB); 100 uM 1b, replicates R1-R3): 46.54% and 39.47%
inhibition at 100 µM (human CoaB (HCoaB); 100 uM 1b, replicates R1-R3): 43.9%
Activity (human CoaB (HCoaB); 100 uM 1b, replicates R1-R3): 0.000083783 and 0.000077656 and 0.000074000
Activity (human CoaB (HCoaB); 200 uM 1b, replicates R1-R3, compound interference at 200uM makes the assay unreliable): -0.000004063 and 0.000002127 and -0.000001796
MIC (M. tuberculosis H37Rv; 7H9/ADC/Glycerol): > 250 µM
MIC (M. tuberculosis H37Rv; 7H9/Cholesterol/Tyloxapol): > 250 µM
MIC (M. tuberculosis H37Rv; GAST/Fe): 125 µM (≈ 30.8 µg/mL)
